# pEC50, pIC50: −log10 of the molar value. Entries after “also recorded” stand apart in the source; their conditions may differ. Where two headings read alike, the source gives them in different places.
# How the values were obtained:
# [1] = in vivo; cited from earlier work
# [2] = tested on: A/California/07/2009 (H1N1)pdm09; experiment: microbe, parasite or virus in culture; assay type: cell-based; conditions: Influenza A virus, H1N1, MDCK, 120 h
# IFV A/PR/8/34 (H1N1) = experiment: microbe, parasite or virus in culture; assay type: cell-based; conditions: Influenza A virus, MDCK, 120 h
# B/Lee/40 = experiment: microbe, parasite or virus in culture; assay type: cell-based; conditions: Influenza B virus, 120 h
# IFV A/WSN/33 (H1N1) = experiment: microbe, parasite or virus in culture; assay type: cell-based; conditions: Influenza A virus, MDCK, 120 h
# in vitro = conditions: dog
# A/Hongkong/8/68 (H3N2) = experiment: microbe, parasite or virus in culture; assay type: cell-based; conditions: Influenza A virus, H3N2, MDCK, 120 h
# A/Weiss/43 (H1N1) = experiment: microbe, parasite or virus in culture; assay type: cell-based; conditions: Influenza A virus, H1N1, MDCK, 120 h
# B/Florida/78/2015 = experiment: microbe, parasite or virus in culture; assay type: cell-based; conditions: Influenza B virus, 120 h
# [3] = biological target: Influenza Virus CEN PAn enzyme (UniProt P03433); assay type: biochemical; conditions: read-out: CEN IC50
# influenza virus PR/8/34 = tested on: influenza virus PR/8/34; parameters: species or system Balb/c mice; conditions: in vivo; for body weight loss: 5 mg/kg
# influenza virus = assay type: cell-based
# Pharmacokinetics in Rats = assay type: in vivo; parameters: AUClast: unit not given here; conditions: non-fasted male SD rats, plasma B-1
# Procedure: C-1 was administered to 3 non-fasted male SD rats via oral gavage at 3 mg/kg.
# [4] = for AUClast: plasma B-1
# Procedure: (§1) B-1 was administered to male cynomolgus monkeys (2-5 years old, 2-5 kg, 3 animals each group) via intravenous (IV) bolus at 0.25 mg/kg and by oral gavage (PO) at 1 mg/kg; Animals in the IV group had free access to food and water (non-fasted) and animals in the PO group were fasted overnight prior to dosing (fasted). C-1 was administered to male cynomolgus monkeys (fasted or non-fasted, 3 each group) via oral gavage at 1 mg/kg. Blood samples (˜0.5 mL each time point) were collected via the jugular vein into tubes containing potassium ethylenediaminetetraacetic acid (K2EDTA) as the anticoagulant at 0.033, 0.083, 0.25, 0.5, 1, 2, 4, 8 and 24 hours post dose for IV administration and 0.083, 0.25, 0.5, 1, 2, 4, 8 and 24 hours post dose for PO administration. The blood samples were then centrifuged for 10 minutes in a centrifuge refrigerated at 2-8° C. The resultant plasma samples were analyzed using LC/MS/MS to determine concentrations of B-1. Non-compartmental model with WinNonlin (Phoenix™, version 6.1) software was used to calculate pharmacokinetic (PK) parameters.
# in vivo [5] = conditions: male, CD-1, mouse, iv, 1 mg/kg
# Procedure: (§2) B-1 was administered to male CD-1 mice (4-6 weeks old, 20-30 grams, 3 animals each group) via intravenous (IV) bolus at 1 mg/kg and by oral gavage (PO) at 10 mg/kg. […] All animals had free access to food and water prior to dosing. Blood samples (˜0.03 mL each time point) were collected via the jugular vein into tubes containing sodium heparin as the anticoagulant at 0.033, 0.083, 0.25, 0.5, 1, 2, 4, 8 and 24 hours post dose for IV administration and 0.083, 0.25, 0.5, 1, 2, 4, 8 and 24 hours post dose for PO administration. The blood samples were then centrifuged for 5 minutes in a centrifuge refrigerated at 4° C. The resultant plasma samples were analyzed using LC/MS/MS to determine concentrations of B-1. Non-compartmental model with WinNonlin (Phoenix™, version 8.0) software was used to calculate pharmacokinetic (PK) parameters.
# in vivo [6] = conditions: male, cynomolgus monkey, iv, 0.25 mg/kg
# Procedure: as §1
# [7] = male CD-1 mice, plasma B-1
# Procedure: as §2
# [8] = Liver microsomal stability; conditions: mouse, liver microsomes
# [9] = Liver microsomal stability; conditions: dog, liver microsomes
# [10] = Liver microsomal stability; conditions: human, liver microsomes
# [11] = Liver microsomal stability; conditions: cynomolgus monkey, liver microsomes
# [12] = Liver microsomal stability; conditions: rat, liver microsomes
# [13] = Toxicity study, oral gavage once daily for 7 days; assay type: in vivo, Sprague Dawley (SD) rats
# Procedure: A toxicity study of C-1 was conducted in Sprague Dawley (SD) rats. C-1 at 20, 100 and 500 mg/kg or vehicle (0.5% w/v CMC-Na and 0.1% v/v Tween-80 in DI water) was administered via oral gavage to Sprague Dawley rats (7-9 weeks, about 250-300 grams each for males and about 200-250 grams each for females) once daily for 7 days. 8 females and 8 males in each dose group were used.
# [14] = B/Lee/40, MDCK cells, 5 days, read-out: EC50
# [15] = B/Florida/78/2015, MDCK cells, 5 days, read-out: EC50
# [16] = Sprague-Dawley (SD), rat, IV 0.25 mg/kg
# [17] = PO 1 mg/kg, fasted male cynomolgus monkeys
smiles,measurement,setting,value
COC(=O)OCOc1c2n(ccc1=O)N([C@@H]1c3ccccc3SCc3c1ccc(F)c3F)[C@@H]1COCCN1C2=O [baloxavir marboxil],oral availability,[1],poor oral availability
"CCC(CC)O[C@@H]1C=C(C(=O)O)C[C@H](N)[C@H]1NC(C)=O [Oseltamivir acid, reference compound]",pEC50,[2],6.64
same,pEC50,IFV A/PR/8/34 (H1N1),< 4.00
same,pEC50,B/Lee/40; [14],6.13
same,pEC50,IFV A/WSN/33 (H1N1),< 4.00
same,CC50,in vitro,> 100000 nM
same,pEC50,A/Hongkong/8/68 (H3N2),7.70
same,pEC50,A/Weiss/43 (H1N1),6.32
same,pEC50,B/Florida/78/2015; [15],5.07
"O=C1c2c(O)c(=O)ccn2N(C2c3ccccc3[Se]Cc3c2ccc(F)c3F)C2COCCN12 (single isomer, unassigned) [Compound A-1-P1, 12-(7,8-Difluoro-6,11-Dihydrodibenzo[b,e]Selenepin-11-yl)-7-Hydroxy-3,4,12,12a-Tetrahydro-1H-[1,4]Oxazino[3,4-c]Pyrido[2,1-f][1,2,4]Triazine-6,8-Dione]",pIC50,[3],7.38
"CCOC(=O)C1=C[C@@H](OC(CC)CC)[C@H](NC(C)=O)[C@@H](N)C1 [oseltamivir, reference compound]",improvement in body weight loss,"influenza virus PR/8/34; mouse, po",did not result in substantial improvement
same,mice died,"influenza virus PR/8/34; mouse, po",60%
"O=C1c2c(O)c(=O)ccn2N([C@@H]2c3ccccc3SCc3c2ccc(F)c3F)[C@@H]2COCCN12 [Baloxavir acid, reference compound]",pEC50,[2],9.18
same,pEC50,IFV A/PR/8/34 (H1N1),9.14
same,pEC50,B/Lee/40; MDCK,8.20
same,pEC50,IFV A/WSN/33 (H1N1),9.36
same,oral availability,[1],poor oral availability
same,CC50,in vitro,12000 nM
same,pIC50,[3],7.85
same,pEC50,A/Hongkong/8/68 (H3N2),8.77
same,pEC50,B/Florida/78/2015; MDCK,7.80
"CP(C)(=O)c1cn2c(c(O)c1=O)C(=O)N1CCOC[C@H]1N2[C@@H]1c2ccccc2SCc2c1ccc(F)c2F [Compound E-1c, (R)-12-((S)-7,8-difluoro-6,11-dihydrodibenzo[b,e]thiepin-11-yl)-9-(dimethylphosphoryl)-7-hydroxy-3,4,12,12a-tetrahydro-1H-[1,4]oxazino[3,4-c]pyrido[2,1-f][1,2,4]triazine-6,8-dione]",pEC50,[2],6.89
same,pEC50,IFV A/PR/8/34 (H1N1),7.17
same,pEC50,B/Lee/40; [14],< 6.00
same,pEC50,IFV A/WSN/33 (H1N1),7.24
same,CC50,in vitro,> 100000 nM
same,pEC50,A/Hongkong/8/68 (H3N2),6.68
same,pEC50,A/Weiss/43 (H1N1),6.88
same,pEC50,B/Florida/78/2015; [15],< 6.00
"CCP(=O)(CC)c1cn2c(c(O)c1=O)C(=O)N1CCOC[C@H]1N2[C@@H]1c2ccccc2SCc2c1ccc(F)c2F [Compound F-1, (R)-9-(Diethylphosphoryl)-12-((S)-7,8-Difluoro-6,11-Dihydrodibenzo[b,e]-Thiepin-11-yl)-7-Hydroxy-3,4,12,12a-Tetrahydro-1H-[1,4]Oxazino[3,4-c]Pyrido[2,1-f][1,2,4]Triazine-6,8-Dione]",pEC50,[2],6.90
same,pEC50,IFV A/PR/8/34 (H1N1),< 7.00
same,pEC50,B/Lee/40; [14],< 6.00
same,pEC50,IFV A/WSN/33 (H1N1),7.24
same,CC50,in vitro,> 100000 nM
same,pEC50,A/Hongkong/8/68 (H3N2),6.51
same,pEC50,A/Weiss/43 (H1N1),7.66
same,pEC50,B/Florida/78/2015; [15],< 6.00
"O=C1c2c(O)c(=O)ccn2N([C@@H]2c3ccccc3[Se]Cc3c2ccc(F)c3F)[C@@H]2COCCN12 [Compound B-1, (R)-12-((S)-7,8-Difluoro-6,11-Dihydrodibenzo[b,e]Selenepin-11-yl)-7-Hydroxy-3,4,12,12a-Tetrahydro-1H-[1,4]Oxazino[3,4-c]Pyrido[2,1-f][1,2,4]Triazine-6,8-Dione]",pEC50,[2],9.43
same,pEC50,IFV A/PR/8/34 (H1N1),8.96
same,pEC50,B/Lee/40; MDCK,7.92
same,pEC50,IFV A/WSN/33 (H1N1),9.49
same,antivirus activity,influenza virus,potent antivirus activity
same,AUClast,Pharmacokinetics in Rats; IV 0.25 mg/kg,84
same,AUClast,Pharmacokinetics in Rats; PO 3 mg/kg,123
same,AUC(0-inf),Pharmacokinetics in Rats; [16],92 ng·h/mL
same,half-life,Pharmacokinetics in Rats; [16],4 h
same,AUClast,"[4]; IV 0.25 mg/kg, non-fasted male cynomolgus monkeys",204
same,AUClast,[4]; [17],231
same,CC50,in vitro,13000 nM
same,pIC50,[3],7.82
same,AUC(0-inf),in vivo [5],608 ng·h/mL
same,half-life,in vivo [5],4.1 h
same,AUC(0-inf),in vivo [6],257 ng·h/mL
same,half-life,in vivo [6],11 h
same,AUClast,[7]; IV 1 mg/kg,601
same,AUClast,[7]; PO 10 mg/kg,2129
same,antivirus efficacy in influenza virus PR/8/34 mouse model,influenza virus PR/8/34,potent antivirus efficacy; also recorded: potent antivirus activity
same,survival,"influenza virus PR/8/34; mouse, po",survived throughout the study
same,body weight loss,"influenza virus PR/8/34; mouse, po",minimal
same,cytotoxicity,MDCK cells,little cytotoxicity
same,pEC50,A/Hongkong/8/68 (H3N2),9.17
same,pEC50,A/Weiss/43 (H1N1),8.92
same,pEC50,B/Florida/78/2015; MDCK,7.60
"O=C1c2c(O)c(=O)ccn2N(C2c3ccccc3[Se]Cc3c2ccc(F)c3F)C2COCCN12 (single isomer, unassigned) [Compound A-1-P2, 12-(7,8-Difluoro-6,11-Dihydrodibenzo[b,e]Selenepin-11-yl)-7-Hydroxy-3,4,12,12a-Tetrahydro-1H-[1,4]Oxazino[3,4-c]Pyrido[2,1-f][1,2,4]Triazine-6,8-Dione]",half-life,[8],4.77 h
same,microsomal CLint,[8],5.2 µL/min/mg
same,half-life,[9],6.25 h
same,microsomal CLint,[9],4.5 µL/min/mg
same,half-life,[10],60.9 h
same,microsomal CLint,[10],2.2 µL/min/mg
same,pIC50,[3],7.60
same,half-life,[11],1.42 h
same,microsomal CLint,[11],16 µL/min/mg
same,half-life,[12],2.88 h
same,microsomal CLint,[12],8.3 µL/min/mg
"CP(C)(=O)c1cn2c(c(O)c1=O)C(=O)N1CCOCC1N2C1c2ccccc2SCc2c1ccc(F)c2F (single isomer, unassigned) [Compound E-1b, 12-(7,8-difluoro-6,11-dihydrodibenzo[b,e]thiepin-11-yl)-9-(dimethylphosphoryl)-7-hydroxy-3,4,12,12a-tetrahydro-1H-[1,4]oxazino[3,4-c]pyrido[2,1-f][1,2,4]triazine-6,8-dione]",pIC50,[3],7.49
COC(=O)OCOc1c2n(ccc1=O)N(C1c3ccccc3[Se]Cc3c1ccc(F)c3F)[C@@H]1COCCN1C2=O (some centres unmarked) [Compound C-1],AUClast,Pharmacokinetics in Rats; PO 3 mg/kg,280
same,AUClast,[4]; [17],414
same,AUClast,"[4]; PO 1 mg/kg, non-fasted male cynomolgus monkeys",400
same,food effect / impact of feeding condition on oral absorption,"[4]; in words, cynomolgus monkeys, fasted vs non-fasted",did not impact oral absorption
same,pIC50,[3],5.81
same,AUClast,[7]; PO 10 mg/kg,2834
same,antivirus efficacy in influenza virus PR/8/34 mouse model,influenza virus PR/8/34,potent antivirus activity
same,improvement in body weight loss,"influenza virus PR/8/34; mouse, po",significant dose-dependent improvement
same,survival,"influenza virus PR/8/34; mouse, po",survived throughout the study
same,body weight loss,"influenza virus PR/8/34; mouse, po",minimal
same,MTD at 7 days,"[13]; both sexes, Sprague Dawley, rat, in vivo, oral gavage once daily for 7 days, read-out: maximum tolerated dose (MTD)",> 500 mg/kg/day
same,"toxic findings (clinical observation, body weight, food consumption, gross pathology)","[13]; in words, 20, 100 and 500 mg/kg oral gavage once daily for 7 days",No C-1-related toxic findings
same,tolerability,"[13]; in words, oral gavage once daily for 7 days",well tolerated
"CP(C)(=O)c1cn2c(c(O)c1=O)C(=O)N1CCOCC1N2C1c2ccccc2SCc2c1ccc(F)c2F (single isomer, unassigned) [Compound E-1a, 12-(7,8-difluoro-6,11-dihydrodibenzo[b,e]thiepin-11-yl)-9-(dimethylphosphoryl)-7-hydroxy-3,4,12,12a-tetrahydro-1H-[1,4]oxazino[3,4-c]pyrido[2,1-f][1,2,4]triazine-6,8-dione]",pIC50,[3],7.51
